Data taken from PMC12664493, “Asparagine endopeptidase (AEP) inhibitor formulation via zein-based nanoparticle improves the therapeutic efficacy toward Alzheimer's disease” (Neurotherapeutics, 2025).
Read-outs that look alike come from different tables or passages of the source.

Legend:
recombinant AEP enzyme = target: T1, recombinant AEP enzyme (Homo sapiens, UniProt Q99538); experiment: In vitro AEP enzymatic inhibition assay; format: biochemical; settings: read-out: IC50 toward recombinant AEP enzyme (in vitro)
T1 sequence (Q99538 18-433): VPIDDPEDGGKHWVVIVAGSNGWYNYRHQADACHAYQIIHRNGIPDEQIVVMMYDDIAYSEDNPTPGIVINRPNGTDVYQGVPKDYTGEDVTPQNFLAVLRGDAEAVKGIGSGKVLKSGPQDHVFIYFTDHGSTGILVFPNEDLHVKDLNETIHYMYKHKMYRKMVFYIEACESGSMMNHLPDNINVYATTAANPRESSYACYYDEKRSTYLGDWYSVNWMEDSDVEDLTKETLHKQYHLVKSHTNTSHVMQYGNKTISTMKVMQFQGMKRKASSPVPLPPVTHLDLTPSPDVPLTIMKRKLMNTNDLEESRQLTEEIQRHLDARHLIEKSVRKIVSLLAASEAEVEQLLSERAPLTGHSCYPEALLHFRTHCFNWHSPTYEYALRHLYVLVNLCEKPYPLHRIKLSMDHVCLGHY
Description: AEP activity was assessed as previously described [21]. Tissue homogenates (10 ​μg protein) were incubated with 20 ​μM AEP-specific fluorogenic substrate in 200 ​μL of optimized assay buffer (20 ​mM citric acid, 60 ​mM Na2HPO4, 1 ​mM EDTA, 0.1 ​% CHAPS, 1 ​mM DTT; pH 6.0) to quantify enzymatic activity. Reactions were performed at 37 ​°C in a temperature-controlled microplate reader (BioTek Synergy HTX Multimode Reader, Agilent, California, USA). AEP-mediated cleavage of the substrate, liberating fluorescent 7-amino-4-methylcoumarin (AMC), was monitored kinetically by measuring emission at 460 ​nm (excitation: 380 ​nm) every 5 ​min over 60-min. Fluorescence values were normalized to background signal from substrate-free controls, and enzyme activity was calculated as the rate of AMC generation (RFU/min/μg protein) during the linear phase of the reaction.

AEP [1] = target: T2, AEP (Rattus norvegicus, UniProt Q9R0J8); experiment: AEP inhibition in cultured primary neurons; format: cell-based
T2 construct: endogenous in cells; host or cells: primary rat cortical neurons
T2 sequence (Q9R0J8 18-435): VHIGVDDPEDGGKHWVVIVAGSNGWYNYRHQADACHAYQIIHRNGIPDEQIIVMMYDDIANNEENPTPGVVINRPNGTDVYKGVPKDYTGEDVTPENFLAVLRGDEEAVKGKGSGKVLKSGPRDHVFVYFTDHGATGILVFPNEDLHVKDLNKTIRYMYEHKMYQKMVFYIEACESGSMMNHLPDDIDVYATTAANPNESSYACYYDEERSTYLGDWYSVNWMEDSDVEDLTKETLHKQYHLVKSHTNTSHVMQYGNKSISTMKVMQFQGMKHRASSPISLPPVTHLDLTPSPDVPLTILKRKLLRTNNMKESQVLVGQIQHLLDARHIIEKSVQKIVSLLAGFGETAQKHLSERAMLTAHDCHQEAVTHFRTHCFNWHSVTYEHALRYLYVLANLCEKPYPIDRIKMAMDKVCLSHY

Solubility (pH 7.4, PBS) = format: physicochemical
[2] = Stability in human liver microsomes; format: in vitro ADME; settings: for half-life: read-out: Stability-Microsomes T1/2
[3] = Stability in mouse liver microsomes; format: in vitro ADME; settings: for half-life: read-out: Stability-Microsomes T1/2
[4] = Stability in human hepatocytes; format: in vitro ADME; settings: for half-life: read-out: Stability-Hepatocytes T1/2
[5] = Stability in mouse hepatocytes; format: in vitro ADME
[6] = Stability in human plasma; format: in vitro ADME; settings: read-out: Stability-Plasma T1/2
[7] = Stability in mouse plasma; format: in vitro ADME; settings: read-out: Stability-Plasma T1/2
[8] = Plasma protein binding, human; format: in vitro ADME
[9] = Plasma protein binding, mouse; format: in vitro ADME
[10] = PAMPA-BBB permeability assay; format: in vitro ADME; settings: read-out: Permeability-PAMPA-BBB Pe
Caco-2 permeability = format: in vitro ADME; settings: human; for Papp A→B: first value of the cell
P-glycoprotein (MDR1) = target: T3, P-glycoprotein (MDR1) (Homo sapiens, UniProt P08183); experiment: MDR1-MDCKII permeability assay (P-glycoprotein efflux); format: in vitro ADME; settings: dog, MDCK-MDR1; for Papp A→B: first value in brackets; for Papp B→A: second value in brackets
T3 construct: expressed in transfected cells; host or cells: MDCKII
T3 sequence (P08183 whole entry): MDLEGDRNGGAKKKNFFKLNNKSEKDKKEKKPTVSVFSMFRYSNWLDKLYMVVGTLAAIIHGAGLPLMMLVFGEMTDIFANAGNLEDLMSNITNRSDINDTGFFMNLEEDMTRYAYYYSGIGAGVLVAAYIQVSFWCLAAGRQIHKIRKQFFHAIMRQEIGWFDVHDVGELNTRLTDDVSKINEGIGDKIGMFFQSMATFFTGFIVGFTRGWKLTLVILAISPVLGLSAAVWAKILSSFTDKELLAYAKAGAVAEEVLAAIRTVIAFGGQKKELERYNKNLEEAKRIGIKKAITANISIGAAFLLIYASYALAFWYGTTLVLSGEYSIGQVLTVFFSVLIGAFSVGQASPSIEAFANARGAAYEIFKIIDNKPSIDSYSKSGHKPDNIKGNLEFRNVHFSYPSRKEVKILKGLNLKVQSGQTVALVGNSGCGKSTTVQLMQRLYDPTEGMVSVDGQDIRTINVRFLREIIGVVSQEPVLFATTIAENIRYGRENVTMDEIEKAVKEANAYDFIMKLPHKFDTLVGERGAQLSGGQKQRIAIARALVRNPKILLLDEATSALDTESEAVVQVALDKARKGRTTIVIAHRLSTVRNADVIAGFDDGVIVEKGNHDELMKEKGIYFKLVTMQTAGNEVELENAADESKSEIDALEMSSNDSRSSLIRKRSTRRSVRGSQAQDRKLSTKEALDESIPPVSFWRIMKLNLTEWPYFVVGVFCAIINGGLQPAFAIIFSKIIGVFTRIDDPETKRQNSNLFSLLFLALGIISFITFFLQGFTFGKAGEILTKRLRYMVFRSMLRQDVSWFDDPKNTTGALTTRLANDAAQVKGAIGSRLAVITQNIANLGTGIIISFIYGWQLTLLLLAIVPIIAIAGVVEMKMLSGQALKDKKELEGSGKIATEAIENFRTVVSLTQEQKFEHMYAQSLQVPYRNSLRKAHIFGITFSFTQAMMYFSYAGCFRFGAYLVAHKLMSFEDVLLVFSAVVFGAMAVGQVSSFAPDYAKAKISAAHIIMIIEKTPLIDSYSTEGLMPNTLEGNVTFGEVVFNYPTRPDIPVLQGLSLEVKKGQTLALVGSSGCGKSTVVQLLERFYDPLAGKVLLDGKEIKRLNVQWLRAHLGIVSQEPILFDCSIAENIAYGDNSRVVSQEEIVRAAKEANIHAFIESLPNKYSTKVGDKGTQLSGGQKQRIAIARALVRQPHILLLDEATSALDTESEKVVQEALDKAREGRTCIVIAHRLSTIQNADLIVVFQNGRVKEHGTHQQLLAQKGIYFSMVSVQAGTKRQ

hERG K+ channel = hERG K+ channel (Homo sapiens, UniProt Q12809); experiment: hERG inhibition assay
Sequence of hERG K+ channel (Q12809 whole entry): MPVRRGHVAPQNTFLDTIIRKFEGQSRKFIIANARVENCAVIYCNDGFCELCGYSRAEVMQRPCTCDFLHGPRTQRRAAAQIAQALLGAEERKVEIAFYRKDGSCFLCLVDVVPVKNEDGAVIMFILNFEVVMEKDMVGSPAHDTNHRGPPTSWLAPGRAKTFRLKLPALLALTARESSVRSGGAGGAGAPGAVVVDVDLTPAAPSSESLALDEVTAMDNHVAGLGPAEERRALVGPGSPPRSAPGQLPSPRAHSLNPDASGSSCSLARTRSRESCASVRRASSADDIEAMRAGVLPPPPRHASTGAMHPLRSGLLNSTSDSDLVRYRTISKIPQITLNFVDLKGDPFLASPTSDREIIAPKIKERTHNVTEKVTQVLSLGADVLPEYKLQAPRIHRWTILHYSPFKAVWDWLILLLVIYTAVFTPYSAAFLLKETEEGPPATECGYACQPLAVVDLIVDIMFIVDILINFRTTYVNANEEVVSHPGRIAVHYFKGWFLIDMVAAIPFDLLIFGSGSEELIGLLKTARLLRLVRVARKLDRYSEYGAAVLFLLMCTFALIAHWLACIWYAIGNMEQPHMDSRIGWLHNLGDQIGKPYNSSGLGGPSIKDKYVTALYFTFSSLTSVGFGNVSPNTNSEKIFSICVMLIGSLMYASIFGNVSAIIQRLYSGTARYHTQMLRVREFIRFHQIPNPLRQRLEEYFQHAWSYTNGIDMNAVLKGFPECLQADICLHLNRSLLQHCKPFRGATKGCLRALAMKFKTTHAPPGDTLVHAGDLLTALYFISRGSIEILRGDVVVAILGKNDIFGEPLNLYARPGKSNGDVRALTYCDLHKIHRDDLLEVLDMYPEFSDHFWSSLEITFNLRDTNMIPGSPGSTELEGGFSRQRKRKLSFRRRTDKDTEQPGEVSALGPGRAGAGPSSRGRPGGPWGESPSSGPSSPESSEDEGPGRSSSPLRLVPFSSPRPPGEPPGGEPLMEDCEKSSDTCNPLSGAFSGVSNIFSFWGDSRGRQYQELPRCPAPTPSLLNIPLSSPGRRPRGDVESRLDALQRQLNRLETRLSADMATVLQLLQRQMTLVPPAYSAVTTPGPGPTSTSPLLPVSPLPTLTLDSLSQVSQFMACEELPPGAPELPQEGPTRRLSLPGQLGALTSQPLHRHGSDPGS

[11] = Stability in rat hepatocytes; format: in vitro ADME
[12] = Plasma and brain concentrations after acute oral treatment of 3xTg mice; format: in vivo; settings: both sexes, mouse, plasma, 7.5 mg/kg, P.O. 7.5 mg/kg, read-out: Concentration in plasma, Serum Mean
Source text: Blood and brain tissues were collected at 0, 0.08, 0.25, 0.5, 1, 2, 4, and 8 h post-administration.

AEP [13] = target: T4, AEP (Mus musculus, UniProt O89017); experiment: Acute PD in 3xTg mice: brain AEP enzymatic activity and immunoblotting; format: in vivo; settings: 2 h
T4 construct: from tissue; host or cells: brain / hippocampus of 3xTg mice
T4 sequence (O89017 18-435): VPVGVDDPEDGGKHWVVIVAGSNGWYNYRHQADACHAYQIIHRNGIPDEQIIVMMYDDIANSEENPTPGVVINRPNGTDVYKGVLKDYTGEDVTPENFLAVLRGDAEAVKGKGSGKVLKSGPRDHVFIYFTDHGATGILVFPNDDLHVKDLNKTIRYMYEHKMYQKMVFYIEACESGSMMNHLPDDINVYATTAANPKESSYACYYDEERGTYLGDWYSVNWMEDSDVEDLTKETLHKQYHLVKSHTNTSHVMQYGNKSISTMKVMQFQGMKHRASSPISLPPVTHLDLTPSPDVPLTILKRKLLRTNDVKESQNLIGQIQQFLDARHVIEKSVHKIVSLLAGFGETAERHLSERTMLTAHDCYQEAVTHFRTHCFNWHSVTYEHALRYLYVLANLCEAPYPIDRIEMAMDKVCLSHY

AEP [14] = target: T4, AEP; experiment: Chronic one-month oral treatment of 3xTg mice: AEP activation and substrate cleavage; format: in vivo; settings: 7.5 mg/kg P.O. daily
3xTg mice = experiment: Y-maze test in 3xTg mice; format: in vivo, mouse; settings: 7.5 mg/kg P.O. daily, one month
Source text: Blood and brain tissues were collected at 0, 0.08, 0.25, 0.5, 1, 2, 4, and 8 h post-administration. For acute pharmacodynamic (PD) assessments, male and female 3xTg mice received oral doses of NP-11a-isopropyl at 7.5 mg/kg or 15 mg/kg, and blood and brain samples were collected 2 h after treatment.
The Y-maze test was employed to evaluate spatial working memory and spontaneous alternation behavior, a measure of natural exploratory pattern integrity. The apparatus comprised three symmetrical opaque arms (A, B, C; 30 cm length × 8 cm width × 15 cm height) intersecting at 120° angles to form a Y-shaped configuration. Mice were habituated to the maze during a 5-min acclimatization period to minimize novelty-induced anxiety. Following habituation, spontaneous exploration was recorded for 8 min using an overhead camera, with all trials conducted under consistent low-light conditions to reduce environmental stress. EthoVision XT 12 software (Noldus, Wageningen, The Netherlands) quantified total arm entries, entry sequences, and alternation patterns (consecutive entries into three distinct arms without repetition). The maze was thoroughly cleaned with 70 % ethanol between trials to eliminate olfactory cues.

[15] = design: method as in PMID 38030711; settings: cited from earlier work
BCRP = target: T5, BCRP (Homo sapiens, UniProt Q9UNQ0); experiment: Caco-2-BCRP assay with and without Ko143; format: in vitro ADME; settings: human, Caco-2, Ko143 0 μM
T5 construct: endogenous in cells; host or cells: Caco-2
T5 sequence (Q9UNQ0 1-655): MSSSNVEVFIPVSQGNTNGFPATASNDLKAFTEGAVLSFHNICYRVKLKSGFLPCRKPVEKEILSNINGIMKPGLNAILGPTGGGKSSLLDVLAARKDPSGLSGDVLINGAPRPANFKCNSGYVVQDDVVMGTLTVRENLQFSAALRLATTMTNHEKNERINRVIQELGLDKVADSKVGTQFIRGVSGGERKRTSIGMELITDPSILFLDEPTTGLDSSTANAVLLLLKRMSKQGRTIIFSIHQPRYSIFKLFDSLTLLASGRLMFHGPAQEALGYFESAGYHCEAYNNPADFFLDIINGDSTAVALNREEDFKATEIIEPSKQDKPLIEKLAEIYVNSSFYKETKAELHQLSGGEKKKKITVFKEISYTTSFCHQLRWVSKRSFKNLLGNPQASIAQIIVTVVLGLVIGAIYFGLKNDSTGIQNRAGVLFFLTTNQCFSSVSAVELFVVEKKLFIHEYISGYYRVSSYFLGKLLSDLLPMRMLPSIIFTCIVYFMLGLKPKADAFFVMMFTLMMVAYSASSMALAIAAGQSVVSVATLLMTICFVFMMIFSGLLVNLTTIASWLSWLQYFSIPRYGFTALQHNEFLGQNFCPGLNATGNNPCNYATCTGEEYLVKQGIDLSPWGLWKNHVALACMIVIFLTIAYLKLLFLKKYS

[16] = aqueous buffer, pH 7.4, read-out: Solubility (pH, media)
[17] = read-out: Stability-Hepatocytes T1/2

OCc1cc(Nc2nnc(N3CCCC3)s2)c2nonc2c1N1CCOCC1 [11a-pentyl]
IC50 (recombinant AEP enzyme): 14.7 nM | IC50 (AEP [1]): 55 nM | solubility (Solubility (pH 7.4, PBS); [16]): 5.03 mg/mL | solubility (Solubility (pH 7.4, PBS); pH 7.4, aqueous buffer, pH7.4, read-out: Solubility (pH, media)): 12.5 mM | microsomal CLint [2]: 45.5 µL/min/mg | half-life [2]: 0.508 h | microsomal CLint [3]: 302 µL/min/mg | half-life [3]: 0.0765 h | hepatocyte CLint [4]: 31.3 µL/min/1e6 cells | half-life [4]: > 0.738 h | hepatocyte CLint [5]: 28.5 µL/min/1e6 cells | half-life [5, 17]: > 0.81 h | half-life [6]: > 8 h | half-life [7]: > 8 h | Plasma Protein F u, plasma(%) [8]: 6.4% | Plasma Protein F u, plasma(%) [9]: 20% | Papp [10]: 10.4 ×10⁻⁶ cm/s | efflux ratio (Caco-2 permeability): 1.28 | Papp A→B (Caco-2 permeability): 11.8 ×10⁻⁶ cm/s | Papp B→A (Caco-2 permeability; value after the slash, head names only a-b, read-out: Permeability-Caco-2 Papp, second value of the cell (taken as b-a)): 14.8 ×10⁻⁶ cm/s | Papp A→B (P-glycoprotein (MDR1)): 1.44 ×10⁻⁶ cm/s | Papp B→A (P-glycoprotein (MDR1)): 60.5 ×10⁻⁶ cm/s | efflux ratio (P-glycoprotein (MDR1); third value of the cell, not given, read-out: Permeability-MDR1-MDCKII, value after the brackets (efflux ratio)): 42.1 | IC50 (hERG K+ channel): > 10000 nM

CNc1nnc(Nc2cc(CO)c(N3CCOCC3)c3nonc23)s1 [11a]
IC50 (AEP [1]): 45 nM | solubility (Solubility (pH 7.4, PBS); [16]): 150 mg/mL | microsomal CLint [2]: 12.8 µL/min/mg | half-life [2]: > 3 h | microsomal CLint [3]: 19.9 µL/min/mg | half-life [3]: 1.93 h | hepatocyte CLint [4]: 4.1 µL/min/1e6 cells | half-life [4]: 5.67 h | hepatocyte CLint [11]: 3 µL/min/1e6 cells | half-life [11, 17]: > 8 h | half-life [6]: > 8 h | half-life [7]: > 8 h | Plasma Protein F u, plasma(%) [8]: 43.3% | Plasma Protein F u, plasma(%) [9]: 26.9% | Papp [10]: 1.62 ×10⁻⁶ cm/s | Papp A→B (Caco-2 permeability): 10.6 ×10⁻⁶ cm/s | Papp A→B (P-glycoprotein (MDR1)): 0.78 ×10⁻⁶ cm/s | Papp B→A (P-glycoprotein (MDR1)): 29.2 ×10⁻⁶ cm/s | hERG IC50 (hERG K+ channel): negative | concentration at 2 h [12]: 161 ng/mL | AEP enzymatic activity in the brain (AEP [13]; acute P.O. 7.5 and 15 mg/kg, dose-dependent): substantially inhibited | Active AEP band intensity, hippocampus immunoblotting (AEP [13]; acute P.O.): reduced | AEP activation, APP N585 and Tau N368 fragmentation, hippocampus immunoblotting (AEP [14]): gradually reduced | Cognitive function in the Y maze (3xTg mice): significantly improved | Brain Cmax ([15]; 11a at 10 mg/kg): 27.012 ng/mL | Brain AUC ([15]; oral administration): 128.980 | Plasma AUC ([15]; oral administration): 516.028

CC(C)(C)NCC(O)COc1cccc2c1CC(O)C(O)C2 (centres unmarked) [Nadolol, reference compound]
Papp A→B (BCRP): 0.272 ×10⁻⁶ cm/s | Papp B→A (BCRP): 0.679 ×10⁻⁶ cm/s | recovery (BCRP; read-out: Recovery (%) A→B): 91.5% | recovery (BCRP; read-out: Recovery (%) B→A): 106%

CC(C)NCC(O)COc1cccc2ccccc12 (centres unmarked) [Propranolol, reference compound]
Papp A→B (BCRP): 29.3 ×10⁻⁶ cm/s | Papp B→A (BCRP): 30.5 ×10⁻⁶ cm/s | recovery (BCRP; read-out: Recovery (%) A→B): 93.5% | recovery (BCRP; read-out: Recovery (%) B→A): 102%
